Source: patent US20150218212A1, “FLUORINATED EPOXYKETONE-BASED TETRAPEPTIDE COMPOUNDS AND USES THEREOF AS PROTEASOME INHIBITORS” (FLUORINOV PHARMA INC., priority 2012, published 2015)

Tests used:
Assay type in all cases: cell-based, human
TK-10 = experiment: NCI screening panel, TK-10 (Renal Cancer)
Procedure: (§1) Representative compounds of Formula I were screened using the National Cancer Institute (NCI) screening panel, which consists of a panel of human tumor cell lines, representing leukemia, melanoma, and cancers of the lung, colon, ovary, breast, prostate and renal system.
(§2) After 24 h, two plates of each cell line are fixed in situ with TCA, to represent a measurement of the cell population for each cell line at the time of drug addition (Tz). Experimental drugs are solubilised in dimethyl sulfoxide at 400-fold the desired final maximum test concentration and stored frozen prior to use. At the time of drug addition, an aliquot of frozen concentrate is thawed and diluted to twice the desired final maximum test concentration with complete medium containing 50 μg/mL gentamicin. Additional four, 10-fold or ½ log serial dilutions are made to provide a total of five drug concentrations plus control. Aliquots of 100 μl of these different drug dilutions are added to the appropriate microtiter wells already containing 100 μl of medium, resulting in the required final drug concentrations.
(§3) Following drug addition, the plates are incubated for an additional 48 h at 37° C., 5% CO2, 95% air, and 100% relative humidity. For adherent cells, the assay is terminated by the addition of cold TCA (trichloroacetic acid). Cells are fixed in situ by the gentle addition of 50 μl of cold 50% (w/v) TCA (final concentration, 10% TCA) and incubated for 60 minutes at 4° C. The supernatant is discarded, and the plates are washed five times with tap water and air dried. Sulforhodamine B (SRB) solution (100 μl) at 0.4% (w/v) in 1% acetic acid is added to each well, and plates are incubated for 10 minutes at room temperature. After staining, unbound dye is removed by washing five times with 1% acetic acid and the plates are air dried. Bound stain is subsequently solubilised with 10 mM trizma base, and the absorbance is read on an automated plate reader at a wavelength of 515 nm. For suspension cells, the methodology is the same except that the assay is terminated by fixing settled cells at the bottom of the wells by gently adding 50 μl of 80% TCA (final concentration, 16% TCA). Using the seven absorbance measurements [time zero, (Tz), control growth, (C), and test growth in the presence of drug at the five concentration levels (Ti)], the percentage growth is calculated at each of the drug concentrations levels. Percentage growth inhibition is calculated as: [(Ti−Tz)/(C−Tz)]×100 for concentrations for which Ti>/=Tz and [(Ti−Tz)/Tz]×100 for concentrations for which Ti<Tz.
(§4) Three dose response parameters are calculated for each experimental agent. Growth inhibition of 50% (GI50) is calculated from [(Ti−Tz)/(C−Tz)]×100=50, which is the drug concentration resulting in a 50% reduction in the net protein increase (as measured by SRB staining) in control cells during the drug incubation. The drug concentration resulting in total growth inhibition (TGI) is calculated from Ti=Tz. The LC50 (concentration of drug resulting in a 50% reduction in the measured protein at the end of the drug treatment as compared to that at the beginning) indicating a net loss of cells following treatment is calculated from [(Ti−Tz)/Tz]×100=−50. Values are calculated for each of these three parameters if the level of activity is reached. However, if the effect is not reached or is exceeded, the value for that parameter is expressed as greater or less than the maximum or minimum concentration tested.

SK-MEL-5 = experiment: NCI screening panel, SK-MEL-5 (Melanoma)
Procedure: as §1, §2, §3, §4

ACHN = experiment: NCI screening panel, ACHN (Renal Cancer)
Procedure: as §1, §2, §3, §4

SK-OV-3 = experiment: NCI screening panel, SK-OV-3 (Ovarian Cancer)
Procedure: as §1, §2, §3, §4

OVCAR-5 = experiment: NCI screening panel, OVCAR-5 (Ovarian Cancer)
Procedure: as §1, §2, §3, §4

SF-295 = experiment: NCI screening panel, SF-295 (CNS Cancer)
Procedure: as §1, §2, §3, §4

U251 = experiment: NCI screening panel, U251 (CNS Cancer)
Procedure: as §1, §2, §3, §4

UACC-257 = experiment: NCI screening panel, UACC-257 (Melanoma)
Procedure: as §1, §2, §3, §4

HS 578T = experiment: NCI screening panel, HS 578T (Breast Cancer)
Procedure: as §1, §2, §3, §4

UO-31 = experiment: NCI screening panel, UO-31 (Renal Cancer)
Procedure: as §1, §2, §3, §4

SK-MEL-2 = experiment: NCI screening panel, SK-MEL-2 (Melanoma)
Procedure: as §1, §2, §3, §4

RPMI-8226 = experiment: NCI screening panel, RPMI-8226 (Leukemia)
Procedure: as §1, §2, §3, §4

786-0 = experiment: NCI screening panel, 786-0 (Renal Cancer)
Procedure: as §1, §2, §3, §4

MDA-MB-435 = experiment: NCI screening panel, MDA-MB-435 (Melanoma)
Procedure: as §1, §2, §3, §4

SMILES: CC(C)C[C@H](NC(=O)[C@H](COC(F)F)NC(=O)[C@H](COC(F)F)NC(=O)[C@H](COC(F)F)NC(=O)CN1CCOCC1)C(=O)[C@@]1(C)CO1 [Example 17, (2S)-3-(difluoromethoxy)-N-[(1S)-1-(difluoromethoxymethyl)-2-[[(1S)-1-(difluoro-methoxymethyl)-2-[[(1S)-3-methyl-1-[(2R)-2-methyloxirane-2-carbonyl]butyl]amino]-2-oxo-ethyl]amino]-2-oxo-ethyl]-2-[(2-mor-pholinoacetyl)amino]-propanamide]
- Log10GI50 (TK-10): −6.30
- Log10LC50 (TK-10): >−4.00
- Log10TGI50 (TK-10): −4.85
- Log10GI50 (SK-MEL-5): −7.10
- Log10LC50 (SK-MEL-5): −6.01
- Log10TGI50 (SK-MEL-5): −6.53
- Log10GI50 (ACHN): −5.55
- Log10LC50 (ACHN): >−4.00
- Log10TGI50 (ACHN): >−4.00
- Log10GI50 (SK-OV-3): −6.26
- Log10LC50 (SK-OV-3): >−4.00
- Log10TGI50 (SK-OV-3): >−4.00
- Log10GI50 (OVCAR-5): −6.55
- Log10LC50 (OVCAR-5): >−4.00
- Log10TGI50 (OVCAR-5): −5.71
- Log10GI50 (SF-295): −6.82
- Log10LC50 (SF-295): −5.37
- Log10TGI50 (SF-295): −6.20
- Log10GI50 (U251): −7.26
- Log10LC50 (U251): −5.25
- Log10TGI50 (U251): −6.32
- Log10GI50 (UACC-257): −6.45
- Log10LC50 (UACC-257): >−4.00
- Log10TGI50 (UACC-257): −5.56
- Log10GI50 (HS 578T): −7.15
- Log10LC50 (HS 578T): >−4.00
- Log10TGI50 (HS 578T): −5.27
- Log10GI50 (UO-31): −5.40
- Log10LC50 (UO-31): −4.00
- Log10TGI50 (UO-31): −4.65
- Log10GI50 (SK-MEL-2): −7.27
- Log10LC50 (SK-MEL-2): −5.76
- Log10TGI50 (SK-MEL-2): −6.60
- Log10GI50 (RPMI-8226): −7.14
- Log10LC50 (RPMI-8226): >−4.00
- Log10TGI50 (RPMI-8226): -6.15
- Log10GI50 (786-0): −5.99
- Log10LC50 (786-0): >−4.00
- Log10TGI50 (786-0): −4.92
- Log10GI50 (MDA-MB-435): −7.42
- Log10LC50 (MDA-MB-435): −6.29
- Log10TGI50 (MDA-MB-435): −6.81
